Data from article PMC7397269, “Synthesis and Evaluation of New Coumarin Derivatives as Antioxidant, Antimicrobial, and Anti-Inflammatory Agents” (Molecules, 2020).
In brackets after ≈: the same amount, converted by molar mass. Several values for one entry are separate records, joined by “and”; a condition that tells them apart may be missing. Equal entries are not always repeated. Where two headings read alike, the source gives them in different places.

Columns and labels:
COX-1 = target: T1, COX-1 (Homo sapiens, UniProt P23219); assay: COX-1 inhibition, Cayman assay kit; format: biochemical; conditions: mean of two determinations
T1 construct: purchased Cayman Chemical 701070

[1] = system: Pseudomonas aeruginosa ATCC 27,953; assay: Agar well diffusion, P. aeruginosa; format: cell-based; conditions: ATCC27, 100 μL of 10 mg/mL in DMSO, read-out: diameter of inhibition zone, PA
Outline: (§1)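 Read-out: inhibition zone diameter in mm, mean of triplicate runs. Compound solution (10 mg/mL in DMSO, 100 μL) was loaded into 10 mm wells cut in seeded NA (bacteria, 1 × 10^8 CFU/mL) or SDA (yeast, 1 × 10^6 CFU/mL), then incubated 24 h at 37 °C.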

[2] = system: Bacillus subtilis ATCC 6633; assay: Agar well diffusion, B. subtilis; format: cell-based; conditions: ATCC6633, 100 μL of 10 mg/mL in DMSO, read-out: diameter of inhibition zone, BS
Outline: as §1

[3] = system: Saccharomyces cerevisiae local isolate; assay: Agar well diffusion, S. cerevisiae; format: cell-based; conditions: read-out: diameter of inhibition zone, SC
Outline: as §1

[4] = system: Staphylococcus aureus ATCC 29213; assay: Agar well diffusion, S. aureus; format: cell-based; conditions: ATCC29213, 100 μL of 10 mg/mL in DMSO, read-out: diameter of inhibition zone, SA
Outline: as §1

[5] = system: Candida albicans NRRL Y-477; assay: Agar well diffusion, C. albicans; format: cell-based; conditions: NRRLY477, 100 μL of 10 mg/mL in DMSO, read-out: diameter of inhibition zone, CA
Outline: as §1

[6] = system: formaldehyde-induced rat paw oedema; assay: Formaldehyde-induced rat paw oedema (prophylactic); format: in vivo; conditions: for paw volume reduced compared to positive control: 25 mg/kg orally
[7] = system: Escherichia coli ATCC 2592; assay: Agar well diffusion, E. coli; format: cell-based; conditions: ATCC2592, 100 μL of 10 mg/mL in DMSO, read-out: diameter of inhibition zone, EC
Outline: as §1

trypsin = assay: Proteinase-inhibitory activity; format: biochemical; conditions: 250 µg/mL; mean ± SD (n = 3)
Outline: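 Trypsin (0.06 mg per 2 mL, 20 mM Tris-HCl pH 7.4) was preincubated 5 min with test sample at 250 µg/mL, then 0.8% casein was added for 20 min. Perchloric acid stopped the reaction and supernatant absorbance was read at 280 nm. % inhibition is relative to the no-sample control, in triplicate.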

[8] = DPPH antioxidant assay (radical scavenging); format: biochemical; conditions: mean ± SD (n = 3)
Outline: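 Compounds, starting at 200 μg/mL, were mixed with 0.2 mM methanolic DPPH and incubated 30 min in the dark at 25 °C; absorbance was read at 515 nm. % inhibition is background-corrected against DPPH-only control, with IC50 from curve fit. Runs were triplicate (mean ± SD), with ascorbic acid as positive control.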

COX-2 = target: T2, COX-2 (Homo sapiens, UniProt P35354); assay: COX-2 inhibition, Cayman assay kit; format: biochemical; conditions: for IC50: mean of two determinations; for SI, selectivity index (COX-1/COX-2): ratio of COX-1/COX-2 IC50
T2 construct: purchased Cayman Chemical 701080
T2 sequence (P35354 18-604): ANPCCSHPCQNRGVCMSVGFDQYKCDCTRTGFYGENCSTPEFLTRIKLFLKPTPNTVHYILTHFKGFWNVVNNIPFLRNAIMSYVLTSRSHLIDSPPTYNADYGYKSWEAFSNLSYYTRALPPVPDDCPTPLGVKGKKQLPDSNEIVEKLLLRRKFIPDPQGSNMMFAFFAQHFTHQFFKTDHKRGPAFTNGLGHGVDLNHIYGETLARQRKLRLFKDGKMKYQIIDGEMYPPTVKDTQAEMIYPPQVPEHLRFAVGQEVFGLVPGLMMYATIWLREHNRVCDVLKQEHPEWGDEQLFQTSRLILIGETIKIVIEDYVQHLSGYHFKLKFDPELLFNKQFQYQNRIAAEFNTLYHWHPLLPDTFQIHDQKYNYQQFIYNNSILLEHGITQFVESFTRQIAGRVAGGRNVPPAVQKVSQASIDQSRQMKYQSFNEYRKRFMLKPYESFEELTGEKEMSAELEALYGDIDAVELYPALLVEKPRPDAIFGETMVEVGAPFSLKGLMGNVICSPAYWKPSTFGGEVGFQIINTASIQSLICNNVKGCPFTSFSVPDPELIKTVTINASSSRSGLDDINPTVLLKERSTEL

[9] = system: Bacillus megaterium ATCC 9885; assay: Agar well diffusion, B. megaterium; format: cell-based; conditions: Priestia megaterium, ATCC9885, 100 μL of 10 mg/mL in DMSO, read-out: diameter of inhibition zone, BM
Outline: as §1

[10] = system: Bacillus subtilis ATCC 6633; assay: MIC, two-fold serial dilution, B. subtilis; format: cell-based; conditions: ATCC6633, read-out: Minimum inhibitory concentration, BS
Source text: (§2) The new molecules were individually tested for their antimicrobial activity in vitro against standard bacteria strains from the American Type Culture Collection (ATCC), namely, Staphylococcus aureus ATCC 29213, Bacillus subtilis ATCC 6633, Bacillus megaterium ATCC 9885 (Gram-positive), Escherichia coli ATCC 2592, and Pseudomonas aeruginosa ATCC 27,953 (Gram-negative). The compounds were also microbiologically tested against locally isolated Saccharomyces cerevisiae (yeast) and the standard Agricultural Research Service Culture Collection (NRRL) strain of the yeast-like pathogenic fungus Candida albicans NRRL Y-477. Primary screening was conducted using the agar well diffusion method using nutrient agar (NA) medium and Sabourand dextrose agar (SDA) medium for the tested pathological bacteria and yeast, respectively. […].
(§3) The bacteriostatic activity of the active compounds (having IZ > 16 mm) was then evaluated using the two-fold serial dilution technique. Two-fold serial dilutions of the tested compounds solutions were prepared using the proper nutrient broth to reach final concentrations of 1000, 500, 250, and 125 μg/mL. The tubes were then inoculated with the test microorganisms grown in their suitable broth at 37 °C for 24 h (1 × 10^8 CFU/mL for bacteria and 1 × 10^6 CFU/mL of yeast), 0.1 mL of the above inoculum was administered per 5 mL, and the tubes were incubated at 37 °C for 24 h. The lowest concentration showing no growth was taken as the MIC.

[11] = system: Candida albicans NRRL Y-477; assay: MIC, two-fold serial dilution, C. albicans; format: cell-based; conditions: NRRLY477, read-out: Minimum inhibitory concentration, CA
Outline: (§4)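 Broth tube dilution, two-fold, final 1000–125 μg/mL; inoculum 1 × 10^8 CFU/mL bacteria, 1 × 10^6 CFU/mL yeast (0.1 mL/5 mL); 37 °C, 24 h; MIC read as lowest conc. with no visible growth. Only agar-diffusion actives (IZ > 16 mm) tested.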

[12] = system: Pseudomonas aeruginosa ATCC 27,953; assay: MIC, two-fold serial dilution, P. aeruginosa; format: cell-based; conditions: ATCC27, read-out: Minimum inhibitory concentration, PA
Source text: as §2, §3

[13] = system: Escherichia coli ATCC 2592; assay: MIC, two-fold serial dilution, E. coli; format: cell-based; conditions: ATCC2592, read-out: Minimum inhibitory concentration, EC
Source text: as §2, §3

[14] = system: Staphylococcus aureus ATCC 29213; assay: MIC, two-fold serial dilution, S. aureus; format: cell-based; conditions: ATCC29213, read-out: Minimum inhibitory concentration, SA
Source text: as §2, §3

[15] = system: Saccharomyces cerevisiae local isolate; assay: MIC, two-fold serial dilution, S. cerevisiae; format: cell-based; conditions: read-out: Minimum inhibitory concentration, SC
Outline: as §4

tested microorganisms [16] = assay: MIC, summary over the tested microorganisms; format: cell-based; conditions: two-fold serial dilution; read-out: MIC against most tested microorganisms
Source text: as §2, §3

[17] = system: Bacillus megaterium ATCC 9885; assay: MIC, two-fold serial dilution, B. megaterium; format: cell-based; conditions: Priestia megaterium, ATCC9885, read-out: Minimum inhibitory concentration, BM
Source text: as §2, §3

tested microorganisms [18] = assay: Agar well diffusion, summary over the tested microorganisms; format: cell-based; conditions: all tested microorganisms
Source text: as §2
Antimicrobial tests were conducted via the agar well diffusion method using 100 μL of suspension containing 1 × 10^8 CFU/mL pathological tested bacteria and 1 × 10^6 CFU/mL yeast spread on NA and SDA, respectively. […] After incubation, antimicrobial activity was evaluated by measuring the zone of inhibition against the test organisms and compared with that of the standard. Antimicrobial activities were expressed as the diameter of the inhibition zone (IZ) in mm. The experiment was carried out in triplicate and the average zone of inhibition was calculated.

T1 sequence (P23219 24-599): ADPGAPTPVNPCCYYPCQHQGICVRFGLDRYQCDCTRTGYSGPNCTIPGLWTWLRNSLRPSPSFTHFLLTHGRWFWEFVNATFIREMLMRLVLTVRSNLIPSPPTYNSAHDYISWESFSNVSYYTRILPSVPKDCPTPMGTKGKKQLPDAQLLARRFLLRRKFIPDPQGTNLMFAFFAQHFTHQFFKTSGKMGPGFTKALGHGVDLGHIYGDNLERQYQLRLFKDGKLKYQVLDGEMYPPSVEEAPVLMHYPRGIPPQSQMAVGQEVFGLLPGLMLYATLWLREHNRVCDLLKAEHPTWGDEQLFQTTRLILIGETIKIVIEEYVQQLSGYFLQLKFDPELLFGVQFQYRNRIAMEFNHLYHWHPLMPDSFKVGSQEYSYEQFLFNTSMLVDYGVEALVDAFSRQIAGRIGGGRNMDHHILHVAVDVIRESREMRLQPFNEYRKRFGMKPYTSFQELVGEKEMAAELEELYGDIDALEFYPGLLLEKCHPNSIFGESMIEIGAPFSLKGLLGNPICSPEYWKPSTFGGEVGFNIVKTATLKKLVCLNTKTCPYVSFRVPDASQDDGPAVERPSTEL

Work on `Cc1ccc2oc(=O)c3c(c2c1)OC(N)=C(C(N)=O)C3c1ccc([N+](=O)[O-])cc1` (racemic) [3a, (±)-2-Amino-9-methyl-4-(4-nitrophenyl)-5-oxo-4H,5H-pyrano[3,2-c]chromene-3-carboxamide] yielded an IC50 (COX-1) of 183 µM, a zone of inhibition at 10000 µg/mL [1] of 15 mm and a zone of inhibition at 10000 µg/mL [2] of 18 mm. It also gave a zone of inhibition at 10000 µg/mL [3] of under 15 mm, a zone of inhibition at 10000 µg/mL [4] of under 15 mm and a zone of inhibition at 10000 µg/mL [5] of under 15 mm. The “% inhibition of paw oedema” value ([6]; 2.5 mg/kg orally, 1 h after inducing inflammation) was 29.2%, the melting point was 142 to 144 °C and the zone of inhibition at 10000 µg/mL [7] was 16 mm. The “% Inhibition (proteinase)” value (trypsin) was 79.72 ± 4.51%, the IC50 [8] was “— ((—): inactive (IC50 > 200 μg/mL))” and the IC50 (COX-2) was 9.81 µM. For the same compound, the “SI, selectivity index (COX-1/COX-2)” value (COX-2) was 18.68, the zone of inhibition at 10000 µg/mL [9] was 16 mm and the MIC [10] was 1000 mg/L (≈ 2540 µM).
`Cc1ccc2oc(=O)c3c(c2c1)OC(/N=C/c1ccccc1)=C(C#N)C3c1ccc([N+](=O)[O-])cc1` (racemic) [5a, (±)-2-(benzylideneamino)-9-methyl-4-(4-nitrophenyl)-5-oxo-4H,5H-pyrano[3,2-c]chromene-3-carbonitrile] showed an MIC [11] of 500 mg/L (≈ 1080 µM), an IC50 (COX-1) of 1130 µM and an MIC [12] of 500 mg/L (≈ 1080 µM). It also gave a zone of inhibition at 10000 µg/mL [1] of 24 mm, a zone of inhibition at 10000 µg/mL [2] of 27 mm and a zone of inhibition at 10000 µg/mL [3] of 26 mm. For the same compound, the MIC [13] was 250 mg/L (≈ 539 µM), the zone of inhibition at 10000 µg/mL [4] was 25 mm and the zone of inhibition at 10000 µg/mL [5] was 25 mm. The MIC [14] was 250 mg/L (≈ 539 µM), the melting point was 208 to 209 °C and the zone of inhibition at 10000 µg/mL [7] was 26 mm. The MIC [15] was 500 mg/L (≈ 1080 µM), the MIC (tested microorganisms [16]) was 250 to 500 mg/L (≈ 539 to 1080 µM) and the MIC [17] was 500 mg/L (≈ 1080 µM). The IC50 [8] was “— ((—): inactive (IC50 > 200 μg/mL))”, the IC50 (COX-2) was 7.41 µM and the “SI, selectivity index (COX-1/COX-2)” value (COX-2) was 152 and 152.02. It also gave a zone of inhibition at 10000 µg/mL [9] of 22 mm and an MIC [10] of 250 mg/L (≈ 539 µM).
For `Cc1ccc2oc(=O)c(S(=O)(=O)Nc3ccc(S(N)(=O)=O)cc3)c(O)c2c1` [7b, 4-Hydroxy-6-methyl-2-oxo-N-(4-sulfamoylphenyl)-2H-chromene-3-sulfonamide], the IC50 (COX-1) was 47.6 µM, the zone of inhibition at 10000 µg/mL [1] was under 15 mm and the “IZ against the tested microorganisms” value (tested microorganisms [18]) was under 15 mm. It also gave a zone of inhibition at 10000 µg/mL [2] of under 15 mm, a zone of inhibition at 10000 µg/mL ([3]; well diffusion, 100 μL of 10 mg/mL in DMSO, S. cerevisiae) of under 15 mm and a zone of inhibition at 10000 µg/mL [4] of under 15 mm. For the same compound, the zone of inhibition at 10000 µg/mL [5] was under 15 mm, the melting point was 241 to 243 °C and the zone of inhibition at 10000 µg/mL [7] was under 15 mm. The “% Inhibition (proteinase)” value (trypsin) was 5.93 ± 2.11%, the IC50 [8] was 61.78 ± 2.719 mg/L (≈ 151 µM) and the IC50 (COX-2) was 8.24 µM. The “SI, selectivity index (COX-1/COX-2)” value (COX-2) was 5.78 and the zone of inhibition at 10000 µg/mL [9] was under 15 mm.
For `COc1ccc2c(c1)c(CC(=O)O)c(C)n2C(=O)c1ccc(Cl)cc1` [Indomethacin, reference compound], the “paw volume reduced compared to positive control” value (from here on “paw volume reduced”) ([6]; 1 h after formaldehyde) was 72.09%, the “paw volume reduced” value ([6]; 2 h after formaldehyde) was 74.79% and the “paw volume reduced” value ([6]; 3 h after formaldehyde) was 71.5%.
